What was measured:
recombinant human ACC2 = recombinant human ACC2 (Homo sapiens (Human), UniProt O00763); assay: Measurement of inhibitory activity on human ACC2 (MALDI-TOF MS, conversion of acetyl CoA to malonyl CoA); assay type: biochemical; conditions: recombinant human ACC2, room temperature, 1 to 3 hours
Description: After a cDNA encoding human ACC2 (27 amino acid residue to 2458 amino acid residues from the N-terminus) was cloned from human kidney cDNA library (Clontech), human ACC2 gene containing His-tag sequence at 5′ terminus was inserted into pFastBac1 (Invitrogen). Recombinant baculovirus was generated using Bac-to-Bac baculovirus expression system (Invitrogen) according to the manufacturer's protocol. To express human ACC2, Sf-9 cells were infected with recombinant baculovirus. After infected cells were disrupted, the filtrated lysate was subjected to Ni-affinity chromatography and anion-exchange chromatography. The fractions containing human ACC2 protein were pooled as recombinant human ACC2 solution.
(§1) Recombinant human ACC1 and recombinant human ACC2, which were prepared by the method mentioned above, were preincubated with assay buffer solution (50 mM HEPES-KOH (pH 7.4), 10 mM magnesium chloride, 6-10 mM potassium citrate, 4 mM reduced form of glutathione, 1.5 mg/ml bovine serum albumin) for one hour. Then, 0.2 μL of each this invention compound solution (in DMSO) were dispensed to 384-well microplate, 5 μL of the preincubated enzyme solution and 5 μL of substrate solution (50 mM HEPES-KOH (pH 7.4), 1 mM ATP, 0.8 mM acetyl CoA and 25-50 mM potassium bicarbonate) were added to microplate. After centrifugation and shaking, the reaction mixtures were incubated in a humidified box at room temperature for 1 to 3 hours. After the incubation, the enzyme reactions were stopped by the addition of EDTA. Then, after the samples were cocrystallized with CHCA (α-cyano-4-hydroxy cinnamic acid) matrices on MALDI target plate, by using the matrix assist laser […] time-of-flight mass spectrometer (MALDI-TOF MS), samples were measured in reflector negative mode. Deprotonated ions of acetyl CoA (AcCoA) of substrate and malonyl CoA (MalCoA) of the reaction product were detected, then, the conversion rates of acetyl CoA to malonyl CoA was calculated by the intensity of [MalCoA-H]−/(Intensity of [MalCoA-H].+Intensity of [AcCoA-H]—) using each signal strength. […] In addition, potassium citrate concentrations in assay buffer solution, potassium hydrogen carbonate concentrations in substrate solution and incubation time were adjusted by each lot of enzyme.

recombinant human ACC1 = recombinant human ACC1 (Homo sapiens (Human), UniProt Q13085); assay: Measurement of inhibitory activity on human ACC1 (MALDI-TOF MS, conversion of acetyl CoA to malonyl CoA); assay type: biochemical; conditions: recombinant human ACC1, room temperature, 1 to 3 hours
Description: After a cDNA encoding human ACC1 (1 amino acid residue to 2346 amino acid residues from the N-terminus) was cloned from human liver cDNA library (BioChain), human ACC1 gene containing myc-tag and His-tag sequence at 3′ terminus was inserted into pIEXBAC3 (Novagen). Recombinant baculovirus was generated using FlashBACGOLD system (Oxford Expression Technologies) according to the manufacturer's protocol. To express human ACC1, Sf-9 cells were infected with recombinant baculovirus. After infected cells were disrupted, the filtrated lysate was subjected to Ni-affinity chromatography and anion-exchange chromatography. The fractions containing human ACC1 protein were pooled as recombinant human ACC1 solution.
as §1

recombinant human ACC2, sequence (O00763 27-2458): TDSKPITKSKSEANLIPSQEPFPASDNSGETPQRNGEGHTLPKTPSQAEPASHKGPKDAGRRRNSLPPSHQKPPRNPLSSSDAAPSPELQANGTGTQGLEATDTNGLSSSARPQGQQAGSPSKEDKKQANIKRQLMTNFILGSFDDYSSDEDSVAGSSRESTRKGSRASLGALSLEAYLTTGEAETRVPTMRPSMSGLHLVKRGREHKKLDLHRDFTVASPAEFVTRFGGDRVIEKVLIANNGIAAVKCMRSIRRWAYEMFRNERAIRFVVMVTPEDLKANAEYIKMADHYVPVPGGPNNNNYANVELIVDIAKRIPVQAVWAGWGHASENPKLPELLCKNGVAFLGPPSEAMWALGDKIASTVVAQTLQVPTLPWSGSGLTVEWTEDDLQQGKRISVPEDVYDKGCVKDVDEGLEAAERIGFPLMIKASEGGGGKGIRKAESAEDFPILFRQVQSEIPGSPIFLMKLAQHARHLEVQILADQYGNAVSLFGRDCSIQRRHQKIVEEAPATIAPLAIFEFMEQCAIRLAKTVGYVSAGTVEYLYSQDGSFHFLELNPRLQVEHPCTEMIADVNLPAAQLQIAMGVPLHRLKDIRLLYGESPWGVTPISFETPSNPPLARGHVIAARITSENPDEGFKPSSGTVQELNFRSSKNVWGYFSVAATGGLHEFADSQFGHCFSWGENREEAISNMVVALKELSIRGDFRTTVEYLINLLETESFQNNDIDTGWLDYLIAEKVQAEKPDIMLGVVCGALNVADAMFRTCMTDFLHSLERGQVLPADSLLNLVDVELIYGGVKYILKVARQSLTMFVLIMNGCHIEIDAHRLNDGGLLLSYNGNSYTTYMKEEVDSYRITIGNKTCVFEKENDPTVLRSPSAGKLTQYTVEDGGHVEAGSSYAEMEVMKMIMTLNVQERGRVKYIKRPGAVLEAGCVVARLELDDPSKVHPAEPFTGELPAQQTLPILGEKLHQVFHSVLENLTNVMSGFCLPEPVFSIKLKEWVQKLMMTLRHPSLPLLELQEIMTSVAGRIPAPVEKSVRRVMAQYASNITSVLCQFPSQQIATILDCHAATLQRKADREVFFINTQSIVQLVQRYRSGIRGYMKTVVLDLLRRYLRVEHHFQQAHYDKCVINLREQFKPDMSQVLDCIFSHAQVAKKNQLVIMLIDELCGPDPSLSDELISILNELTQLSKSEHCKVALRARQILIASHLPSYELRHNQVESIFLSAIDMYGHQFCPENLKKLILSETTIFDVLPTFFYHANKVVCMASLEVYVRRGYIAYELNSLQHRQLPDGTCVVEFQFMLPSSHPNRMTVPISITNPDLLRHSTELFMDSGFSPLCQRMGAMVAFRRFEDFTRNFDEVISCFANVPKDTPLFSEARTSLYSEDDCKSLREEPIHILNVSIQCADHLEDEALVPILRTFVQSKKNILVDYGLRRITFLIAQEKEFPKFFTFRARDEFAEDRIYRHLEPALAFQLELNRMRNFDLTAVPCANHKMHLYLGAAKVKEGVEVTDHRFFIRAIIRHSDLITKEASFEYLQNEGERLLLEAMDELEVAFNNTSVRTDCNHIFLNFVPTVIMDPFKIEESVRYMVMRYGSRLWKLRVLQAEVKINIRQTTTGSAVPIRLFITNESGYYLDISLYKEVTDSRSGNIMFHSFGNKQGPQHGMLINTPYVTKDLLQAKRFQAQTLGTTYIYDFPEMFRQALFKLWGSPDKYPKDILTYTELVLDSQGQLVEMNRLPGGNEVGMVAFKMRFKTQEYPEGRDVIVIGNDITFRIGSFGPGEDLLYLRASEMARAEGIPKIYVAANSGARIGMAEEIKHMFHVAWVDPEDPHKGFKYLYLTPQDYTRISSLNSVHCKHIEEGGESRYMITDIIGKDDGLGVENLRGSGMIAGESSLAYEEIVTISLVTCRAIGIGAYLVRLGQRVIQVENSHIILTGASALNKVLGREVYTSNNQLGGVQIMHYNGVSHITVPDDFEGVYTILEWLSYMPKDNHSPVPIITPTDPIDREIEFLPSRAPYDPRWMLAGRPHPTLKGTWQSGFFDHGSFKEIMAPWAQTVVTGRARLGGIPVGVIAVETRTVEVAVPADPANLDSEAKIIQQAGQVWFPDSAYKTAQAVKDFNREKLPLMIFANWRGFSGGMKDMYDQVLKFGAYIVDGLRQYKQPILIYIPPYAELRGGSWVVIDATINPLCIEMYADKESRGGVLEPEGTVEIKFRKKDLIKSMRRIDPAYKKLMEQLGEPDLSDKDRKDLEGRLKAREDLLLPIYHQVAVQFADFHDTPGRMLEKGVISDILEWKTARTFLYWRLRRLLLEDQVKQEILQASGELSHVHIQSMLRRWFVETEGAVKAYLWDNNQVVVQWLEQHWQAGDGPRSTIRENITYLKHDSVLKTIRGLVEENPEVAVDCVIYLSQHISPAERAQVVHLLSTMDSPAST

- IC50 (recombinant human ACC2): 120 nM
- IC50 (recombinant human ACC1): > 100000 nM
SMILES: C[C@@H](CO[C@H]1CC[C@H](Oc2nc3c(F)cc(OCC(F)F)c(F)c3n2C)CC1)NS(N)(=O)=O [Example I-242]
